Measurements taken from patent US9713616B2, “Pharmaceutical compositions comprising L-leucovorin” (Spectrum Pharmaceuticals, Inc., priority 2012, dated 2017).

What was measured:
Format in all cases: physicochemical
[1] = Example 1: dissolved concentration after about one hour of sonication, then stirring at 5° C.; details: sonicated about one hour, stirred at 5° C.
Description: L-leucovorin calcium (Merck) or racemic leucovorin calcium (Sigma) was added to water or aqueous sodium chloride (0.83%) and sonicated for about one hour. The mixtures were then stirred for about 20 hours at 5° C. The concentration of dissolved L-leucovorin calcium or racemic leucovorin calcium was determined at 15 min., 30 min., 1 hour, and 20 hours after sonication began.

[2] = Example 4: dissolved concentration after 1 hour of sonication, then stirring at 25° C.; details: sonicated 1 hour, stirred at 25° C.
Description: L-leucovorin calcium (Merck) or racemic leucovorin calcium (Sigma) was added to water or aqueous sodium chloride (0.83%) and sonicated for 1 hour. The mixture was then stirred for an additional 19 hours 25° C. The concentration of dissolved L-leucovorin calcium or racemic leucovorin calcium was determined at 15 min., 30 min., 1 hour, or 20 hours after stirring began.

[3] = Example 2: dissolved concentration after sonication at 40° C., then stirring at 5° C. for 20 hours; details: sonicated at 40° C., stirred at 5° C.
Description: L-leucovorin calcium (Merck) or racemic leucovorin calcium (USP) was added to water or aqueous sodium chloride (0.83%) and sonicated at 40° C. to dissolve the L-leucovorin calcium or racemic leucovorin calcium. The solutions were then stirred at 5° C. for 20 hours. The concentration of dissolved L-leucovorin calcium or racemic leucovorin calcium was determined at 2 hours and 20 hours after stirring began.

[4] = Example 3: dissolved concentration after sonication at 40° C., stirring at 5° C., nitrogen purge and sealed vial at 2 hours; details: sonicated at 40° C., stirred at 5° C.
Description: L-leucovorin calcium (Merck) or racemic leucovorin (USP) calcium was added to water or aqueous sodium chloride (0.83%) and sonicated at 40° C. to dissolve the L-leucovorin calcium or racemic leucovorin calcium. The solutions were then stirred at 5° C. for 15 hours. At 2 hours, the solutions were purged with nitrogen gas and placed in a sealed vial. The concentration of dissolved L-leucovorin calcium or racemic leucovorin calcium was determined at two hours and 15 hours after sonication began.

[5] = Example 5: dissolved concentration after sonication at 40° C. for about half an hour, then stirring at 25° C. for 20 hours; details: sonicated at 40° C. about half an hour, stirred at 25° C.
Description: L-leucovorin calcium (Merck) or racemic leucovorin calcium (USP) was added to water or aqueous sodium chloride (0.83%) and sonicated at 40° C. for about half an hour. The mixture was then stirred at 25° C. for 20 hours. The concentration of dissolved L-leucovorin calcium or racemic leucovorin calcium was determined at two hours and 20 hours.

[6] = Example 6: dissolved concentration after sonication at 40° C. for one hour, stirring at 25° C., nitrogen purge and sealed vial after 2 hours; details: sonicated at 40° C. one hour, stirred at 25° C.
Description: L-leucovorin calcium (Merck) or racemic leucovorin (USP) calcium was added to water or aqueous sodium chloride (0.83%) and sonicated at 40° C. for one hour to dissolve the L-leucovorin calcium or racemic leucovorin calcium. The solutions were then stirred at 25° C. for an additional hour. After 2 hours, the solutions were purged with nitrogen and placed in a sealed vial. The mixtures were then stirred for an additional 18 hours. The concentration of dissolved L-leucovorin calcium or racemic leucovorin calcium was determined at two hours and 20 hours after sonication began.

With `Nc1nc(=O)c2c([nH]1)NCC(CNc1ccc(C(=O)N[C@@H](CCC(=O)[O-])C(=O)[O-])cc1)N2C=O.[Ca+2]` (mixture of isomers) [Sigma Leucovorin Calcium, racemic leucovorin calcium] the “Assay (concentration of dissolved compound)” value (shortened to “Assay”) ([1]; H2O, 15 min.) was 16.7 mg/mL, the “Assay” value ([1]; H2O, 30 min.) was 22.0 mg/mL and the “Assay” value ([1]; H2O, 1 hr) was 15.8 mg/mL. For the same compound, the “Assay” value ([1]; H2O, 20 hrs) was 3.3 mg/mL, the “Assay” value ([1]; NaCl (0.83%), 15 min.) was 22.6 mg/mL and the “Assay” value ([1]; NaCl (0.83%), 30 min.) was 22.9 mg/mL. For the same compound, the “Assay” value ([1]; NaCl (0.83%), 1 hr) was 23.2 mg/mL, the “Assay” value ([1]; NaCl (0.83%), 20 hrs) was 7.4 mg/mL and the “Assay” value ([2]; H2O, 15 min.) was 52.9 mg/mL. The “Assay” value ([2]; H2O, 30 min.) was 53.3 mg/mL, the “Assay” value ([2]; H2O, 1 hr) was 50.1 mg/mL and the “Assay” value ([2]; H2O, 20 hrs) was 9.0 mg/mL. The “Assay” value ([2]; NaCl (0.83%), 15 min.) was 42.1 mg/mL, the “Assay” value ([2]; NaCl (0.83%), 30 min.) was 41.9 mg/mL and the “Assay” value ([2]; NaCl (0.83%), 1 hr) was 39.6 mg/mL. For the same compound, the “Assay” value ([2]; NaCl (0.83%), 20 hrs) was 14.2 mg/mL.

With `Nc1nc(=O)c2c([nH]1)NCC(CNc1ccc(C(=O)N[C@@H](CCC(=O)[O-])C(=O)[O-])cc1)N2C=O.[Ca+2]` (mixture of isomers) [USP Leucovorin Calcium, racemic leucovorin calcium] the “Assay” value ([3]; H2O, 20 hrs) was 4.2 mg/mL, the “Assay” value ([3]; NaCl (0.83%), 20 hrs) was 7.2 mg/mL and the “Assay” value ([4]; H2O, 2 hrs) was 3.6 mg/mL. For the same compound, the “Assay” value ([4]; H2O, 15 hrs) was 3.8 mg/mL, the “Assay” value ([4]; NaCl (0.83%), 2 hrs) was 8.4 mg/mL and the “Assay” value ([4]; NaCl (0.83%), 15 hrs) was 8.6 mg/mL. For the same compound, the “Assay” value ([5]; H2O, 20 hrs) was 13.4 mg/mL, the “Assay” value ([5]; NaCl (0.83%), 20 hrs) was 17.4 mg/mL and the “Assay” value ([6]; H2O, 2 hrs) was 10.1 mg/mL. For the same compound, the “Assay” value ([6]; H2O, 20 hrs) was 10.8 mg/mL, the “Assay” value ([6]; NaCl (0.83%), 2 hrs) was 16.1 mg/mL and the “Assay” value ([6]; NaCl (0.83%), 20 hrs) was 17.1 mg/mL.

For `Nc1nc(=O)c2c([nH]1)NCC(CNc1ccc(C(=O)NC(CCC(=O)O)C(=O)O)cc1)N2C=O` [L-Leucovorin, L-leucovorin calcium], the “Assay” value ([1]; H2O, 15 min.) was 7.5 mg/mL, the “Assay” value ([1]; H2O, 30 min.) was 8.4 mg/mL and the “Assay” value ([1]; H2O, 1 hr) was 8.0 mg/mL. The “Assay” value ([1]; H2O, 20 hrs) was 11.9 mg/mL, the “Assay” value ([1]; NaCl (0.83%), 15 min.) was 9.6 mg/mL and the “Assay” value ([1]; NaCl (0.83%), 30 min.) was 10.0 mg/mL. The “Assay” value ([1]; NaCl (0.83%), 1 hr) was 13.4 mg/mL, the “Assay” value ([1]; NaCl (0.83%), 20 hrs) was 17.4 mg/mL and the “Assay” value ([3]; H2O, 2 hrs) was 31.9 mg/mL. For the same compound, the “Assay” value ([3]; H2O, 20 hrs) was 26.2 mg/mL, the “Assay” value ([3]; NaCl (0.83%), 2 hrs) was 42.3 mg/mL and the “Assay” value ([3]; NaCl (0.83%), 20 hrs) was 39.6 mg/mL. For the same compound, the “Assay” value ([4]; H2O, 2 hrs) was 40.4 mg/mL, the “Assay” value ([4]; H2O, 15 hrs) was 21.2 mg/mL and the “Assay” value ([4]; NaCl (0.83%), 2 hrs) was 49.2 mg/mL. The “Assay” value ([4]; NaCl (0.83%), 15 hrs) was 35.6 mg/mL, the “Assay” value ([2]; H2O, 15 min.) was 14.9 mg/mL and the “Assay” value ([2]; H2O, 30 min.) was 15.1 mg/mL. The “Assay” value ([2]; H2O, 1 hr) was 16.1 mg/mL, the “Assay” value ([2]; H2O, 20 hrs) was 23.6 mg/mL and the “Assay” value ([2]; NaCl (0.83%), 15 min.) was 20.2 mg/mL. For the same compound, the “Assay” value ([2]; NaCl (0.83%), 30 min.) was 20.4 mg/mL, the “Assay” value ([2]; NaCl (0.83%), 1 hr) was 21.6 mg/mL and the “Assay” value ([2]; NaCl (0.83%), 20 hrs) was 32.4 mg/mL. For the same compound, the “Assay” value ([5]; H2O, 2 hrs) was 31.9 mg/mL, the “Assay” value ([5]; H2O, 20 hrs) was 31.1 mg/mL and the “Assay” value ([5]; NaCl (0.83%), 2 hrs) was 42.3 mg/mL. For the same compound, the “Assay” value ([5]; NaCl (0.83%), 20 hrs) was 42.1 mg/mL, the “Assay” value ([6]; H2O, 2 hrs) was 40.4 mg/mL and the “Assay” value ([6]; H2O, 20 hrs) was 42.3 mg/mL. For the same compound, the “Assay” value ([6]; NaCl (0.83%), 2 hrs) was 49.2 mg/mL and the “Assay” value ([6]; NaCl (0.83%), 20 hrs) was 53.1 mg/mL.
